Tests used:
[1] = test system: CD8+CTL line specific for HLA-A2; assay: Cytotoxicity assay: inhibition of lysis by established CTL, 51Cr-labeled JY targets; format: cell-based, human; settings: cell ratio 10:1, CTL line AJY
[2] = test system: rat splenocytes; assay: Differentiation of rat splenocytes into allospecific CTL in vitro; format: cell-based; settings: initial studies
Procedure: Therefore, we tested whether splenocytes obtained from rats treated with the peptides in vivo could differentiate into CTL ex vivo. In preliminary studies, the half-life of the B7.75-84 peptide was determined to be 2–3 hours in rats.

[3] = test system: murine heart allograft; assay: Murine heart allograft survival, C57B1/6 donor to CBA recipient; format: in vivo, mice
Procedure: Following the procedure set forth in Example 2C, daily administration of B2702.75-84 (80 mg/kg/day:ip) to CBA mice with (H-2^k) recipients of a C57B1/6 with (H-2^b) murine heart allograft prolonged graft survival to 11.4±2.6 days compared to 7.5±1.2 days in untreated control animals (n=8; p<0.01, Mann-Whitney U Test). The therapy using the same compound starting at day 5 after transplantation, prolonged graft survival to 9.2±0.4 days (n=5; p<0.02) indicating the subject composition could be useful in an ongoing rejection episode. In combination with a subtherapeutic dose of cyclosporin A (2.7 mg/kg/day; ip; day 0–4) the subject peptide prolonged graft survival to at least 45 days (3 grafts out of 4 still beating) compared to a median graft survival of 14 days in animals that received cyclosporin A monotherapy.
When the B2702.75-84 was prepared as the D-isomer (all amino acids in the D-form) and administered to murine graft recipients at 10 mg/kg/day (ip; day 0–10), graft survival was prolonged to more than 22 days in 4 out of 5 animals (4 grafts out of 5 still beating).

[4] = test system: PBL from normal donors; assay: PBL proliferation with Conagglutinin A, 3H-thymidine incorporation; format: cell-based, human; settings: approximate, purity not established
Procedure: To measure the effect of D-substitutions on proliferation, PBL from normal donors were cultured at 5×10^5 cells/round bottom microtiter well in RPMI-1640 supplemented with 10% fetal bovine serum and L-glutamine. Cultures were supplemented with Conagglutinin A. Cells were incubated at 37° C. for three days at which point ^3H-thymidine (1 μCi/well) was added. After 24 hours, wells were harvested and ^3H-thymidine incorporation determined by scintillation counter.

[5] = test system: popliteal lymph node cells; assay: Lymph node proliferation assay (footpad injection of splenocytes); format: in vivo, rat; settings: treated within 24 hours of footpad injection; compared with approximately 3:1
Procedure: ACI or PVG rats (200 g) were injected intravenously with peptides dissolved in saline on day 0. On the indicated days thereafter, the left rear footpads of the rats were injected with 5×10^6 splenocytes from a syngeneic donor and the right rear footpads with 5×10^6 splenocytes from an allogeneic Lew donor (Moeller et al. Transplantation (1993) 55:650). See also Twist and Barnes Transplantation (1973) 15:182; Fanslow et al. Science (1990) 248:739). Seven days after the footpad injection, the animals were sacrificed and the popliteal lymph nodes removed. A single cell suspension was prepared, and the cell number determined using a hemocytometer.
PVG or ACI rats (3 per group) were given a single intravenous injection of 2 mg of each of the four peptides or saline. On the day of treatment, or on days 1, 7, or 10 after treatment, the right footpads were injected with 5×10^6 syngeneic splenocytes while the left footpads were injected with 5×10^6 allogeneic Lew splenocytes. Seven days after the footpad injections, the draining lymph nodes were removed, a single cell suspension was prepared, and the cell number determined.

[6] = test system: CD8+CTL line specific for HLA-A2; assay: Cytotoxicity assay: inhibition of lysis by established CTL, 51Cr-labeled JY targets; format: cell-based, human; settings: JY targets; for % Specific Lysis: cell ratio 1:1, CTL line AJY
Procedure: Cytotoxicity Assay. CTL assays were performed as described using ^51Cr-labeled EBV transformed B cells expressing the appropriate HLA allele as targets [[…] et al., J. Immunol. (1982) 129:2001]. In the present protocol, a CD8+CTL line specific for HLA-A2 was tested in the presence of various peptides for lysis of ^51Cr-labeled JY targets. Peptides were added to a final concentration of 100 μg/ml at the initiation of the 4 h assay. Each determination was the mean of triplicate wells. […] In these determinations, inhibition of cytolysis, as described above, employed the CTL cell line AJY, a long term CD8+CTL line specific for HLA-A2 and the target cell was the B-lymphoblastoid cell line JY (HLA-A2, B7). The cytotoxicity assay was performed as described by Clayberger et al., J. Exp. Med. (1984) 162:1709-1714; and Reiss et al., Proc Natl Acad Sci USA (1980) 77:5432-5436. The peptides were preincubated for 30 min with 1-3×10^3 CTLs before addition of 10^3 51Cr-labeled B-lymphoblastoid target cells. The results are reported for varying concentrations of the peptide with varying ratios of the two cell lines.

Sequence: RENLRIALRY [B2702.75–84]
- % Specific Lysis ([1]; peptide 25 μg/ml): 60.9%
- % Specific Lysis ([1]; peptide 100 μg/ml): 43.7%
- % Specific Lysis ([1]; peptide 200 μg/ml): 33.1%
- blocking of differentiation of rat splenocytes into allospecific CTL in vitro [2]: blocked the differentiation
- graft survival ([3]; 80 mg/kg/day ip daily, untreated 7.5±1.2 days, n=8): 11.4 ± 2.6 days
- graft survival ([3]; peptide plus subtherapeutic cyclosporin A 2.7 mg/kg/day ip day 0–4): at least 45 days
- graft survival ([3]; therapy starting at day 5 after transplantation, n=5): 9.2 ± 0.4 days
- CPM ± SD (3H-thymidine incorporation) ([4]; peptide 50 μg/ml, Con A 1 mg/ml): 5,806 ± 721 CPM
- CPM ± SD (3H-thymidine incorporation) ([4]; peptide 50 μg/ml, Con A 3 mg/ml): 32,618 ± 1582 CPM
- CPM ± SD (3H-thymidine incorporation) ([4]; peptide 200 μg/ml, Con A 1 mg/ml): 2,322 ± 147 CPM
- CPM ± SD (3H-thymidine incorporation) ([4]; peptide 200 μg/ml, Con A 3 mg/ml): 20,905 ± 2047 CPM
- ratio of cells recovered from side injected with allogeneic versus syngeneic cells [5]: A similar ratio
- inhibition of lysis by established CTL ([6]; HLA-A2 specific CD8+CTL, peptides 100 μg/ml, 4 h assay): inhibited lysis
- % Specific Lysis ([6]; peptide 25 μg/ml): 23.9%
- % Specific Lysis ([6]; peptide 100 μg/ml): 18.6%
- % Specific Lysis ([6]; peptide 200 μg/ml): 16.4%
